Patent publication US11040038B2, “Methods for treating diseases associated with abnormal ACVR1 expression and ACVR1 inhibitors for use in the same” (Sumitomo Dainippon Pharma Oncology, Inc., priority 2018, dated 2021)
Like-named read-outs stand apart in the source and are kept apart here.

Assay: Pharmacokinetics and relative bioavailability after a single oral dose (two liquid formulations, powder in capsule)
Assay type: in vivo, male Beagle dogs
Settings: male, Beagle, dog, plasma, po; for AUC(0-t): read-out: AUC0-TLast; for CL/F: read-out: CL/F (converted); for Vd/F: read-out: Vz/F
Source text: The purpose of the study is to dose two suspension formulations of Compound 2 at two dose levels by gavage to Beagle dogs and to collect blood samples for the determination of plasma concentrations, derivation of pharmacokinetic parameters and to determine the relative bioavailability of the two suspension formulations. The pharmacokinetics of Compound 2 would be evaluated following oral administration in capsules and the relative bioavailability of this dosage form to the oral liquid formulations was determined.
This study involves the dosing of the test item by the oral route over three periods separated by a 7 days washout period as outlined in Table 43, Table 44, and Table 45. The third period of the study outlined in Table 45 is considered to be optional and will only be performed at the Sponsor's request. Prior to the day of dosing, food will be removed from the dogs at 4:00 pm and reintroduced 2 hrs after dosing.
For oral administration of the formulations, the test item was administered via a stomach tube followed by the administration of 10 mL of tap water. For oral administration of capsules, the capsule was placed on the back of the tongue to encourage swallowing followed by administration of 10 mL of tap water. The oral cavity was then be inspected to make sure the capsule was swallowed. The actual volume of dosing formulation administered will be calculated based on the animal's most recently scheduled body weight.
The pharmacokinetic parameters for Compound 2 in solution as Formulation #1 (Table 43) and Formulation #2 (Table 44) along with data for the dosing of Compound 2 powder in capsule (Table 45) are presented in Table 46.

[1] = 2 mg/kg, Formulation #1 (Table 43), 2 mg/kg oral, male Beagle dogs, individual dog
[2] = 2 mg/kg, Formulation #1 (Table 43), 2 mg/kg oral, male Beagle dogs, Mean
[3] = 2 mg/kg, Formulation #2 (Table 44), 2 mg/kg oral, male Beagle dogs, Mean
[4] = 2 mg/kg, Formulation #2 (Table 44), 2 mg/kg oral, male Beagle dogs, individual dog
[5] = 2 mg/kg, Powder in Capsule (Table 45), 2 mg/kg oral, male Beagle dogs, Mean
[6] = 2 mg/kg, Powder in Capsule (Table 45), 2 mg/kg oral, male Beagle dogs, individual dog
[7] = 5 mg/kg, Formulation #1 (Table 43), 5 mg/kg oral, male Beagle dogs, Mean
[8] = 5 mg/kg, Formulation #1 (Table 43), 5 mg/kg oral, male Beagle dogs, individual dog
[9] = 5 mg/kg, Formulation #2 (Table 44), 5 mg/kg oral, male Beagle dogs, Mean
[10] = 5 mg/kg, Formulation #2 (Table 44), 5 mg/kg oral, male Beagle dogs, individual dog
[11] = 5 mg/kg, Powder in Capsule (Table 45), 5 mg/kg oral, male Beagle dogs, Mean
[12] = 5 mg/kg, Powder in Capsule (Table 45), 5 mg/kg oral, male Beagle dogs, individual dog

Question: Which results are given for `COc1cc(Nc2nccc(Nc3cccnc3-c3ccccn3)n2)ccc1N1CCN(C)CC1` [Compound 2, N^4-(2,2′-bipyridin-3-yl)-N^2-(3-methoxy-4-(4-methylpiperazin-1-yl)phenyl)pyrimidine-2,4-diamine]?
Answer: AUC(0-inf) [1]: 49 ng·h/mL; Tmax [1]: 5 h; half-life [1]: 360 min; AUC(0-t) [2]: 70 ng·h/mL; CL/F [2]: 483 mL/min/kg; Cmax (2 mg/kg, Formulation #1 (Table 43), 2 mg/kg oral, male Beagle dogs, Mean, read-out: Cmax): 6.78 ng/mL; Vd/F [2]: 237 L/kg; AUC(0-t) [1]: 45 ng·h/mL; CL/F [1]: 683 mL/min/kg; Cmax (2 mg/kg, Formulation #1 (Table 43), 2 mg/kg oral, male Beagle dogs, individual dog, read-out: Cmax): 4.37 ng/mL; AUC(0-inf) [3]: 105 ng·h/mL; Tmax [3]: 4.7 h; half-life [3]: 282 min; Tmax [4]: 4 h; half-life [4]: 234 min; AUC(0-t) [3]: 102 ng·h/mL; CL/F [3]: 400 mL/min/kg; Cmax (2 mg/kg, Formulation #2 (Table 44), 2 mg/kg oral, male Beagle dogs, Mean, read-out: Cmax): 11.6 ng/mL; Vd/F [3]: 177 L/kg; AUC(0-inf) [5]: 90 ng·h/mL; Tmax [5]: 3 h; half-life [5]: 138 min; Tmax [6]: 3 h; half-life [6]: 144 min; AUC(0-t) [5]: 71 ng·h/mL; CL/F [5]: 417 mL/min/kg; Cmax (2 mg/kg, Powder in Capsule (Table 45), 2 mg/kg oral, male Beagle dogs, Mean, read-out: Cmax): 14.9 ng/mL; Vd/F [5]: 85 L/kg; Cmax (5 mg/kg, 5 mg/kg oral, range across Formulation #1, #2 and powder in capsules, read-out: mean Cmax): 22.2 to 27.8 ng/mL; AUC(0-inf) [7]: 294 ng·h/mL; Tmax [7]: 3.7 h; half-life [7]: 306 min; Tmax [8]: 4 h; half-life [8]: 360 min; AUC(0-t) [7]: 280 ng·h/mL; CL/F [7]: 333 mL/min/kg; Cmax (5 mg/kg, Formulation #1 (Table 43), 5 mg/kg oral, male Beagle dogs, Mean, read-out: Cmax): 27.8 ng/mL; Vd/F [7]: 147 L/kg; AUC(0-inf) [9]: 221 ng·h/mL; Tmax [9]: 3.7 h; half-life [9]: 294 min; Tmax [10]: 3 h; half-life [10]: 324 min; AUC(0-t) [9]: 211 ng·h/mL; CL/F [9]: 450 mL/min/kg; Cmax (5 mg/kg, Formulation #2 (Table 44), 5 mg/kg oral, male Beagle dogs, Mean, read-out: Cmax): 22.2 ng/mL; Vd/F [9]: 188 L/kg; AUC(0-inf) [11]: 160 ng·h/mL; Tmax [11]: 4.3 h; half-life [11]: 186 min; AUC(0-inf) [12]: 215 ng·h/mL; Tmax [12]: 3 h; half-life [12]: 162 min; AUC(0-t) [11]: 146 ng·h/mL; CL/F [11]: 550 mL/min/kg; Cmax (5 mg/kg, Powder in Capsule (Table 45), 5 mg/kg oral, male Beagle dogs, Mean, read-out: Cmax): 25.6 ng/mL; Vd/F [11]: 147 L/kg; AUC(0-t) [12]: 191 ng·h/mL; CL/F [12]: 383 mL/min/kg; Tmax (5 mg/kg, beagle dogs, range across formulations at both doses (2 and 5 mg/kg)): 3 to 4.7 h
